The values that follow come from US20210002301A1, “NOVEL ISOTHIAZOLO-AZEPINONE BICYCLES, PROCESSES FOR THEIR PREPARATION AND THEIR USE AS HERBICIDES AND/OR PLANT GROWTH REGULATORS” (Bayer Aktiengesellschaft, priority 2017, published 2021).

Holding throughout (details): Dosage 320
Experiment [1] concerns VERPE. Description: Pre-emergence herbicidal test. Format: in vivo, Veronica persica.
The test system of experiment [2] is ABUTH. The experiment in a line: Post-emergence herbicidal test. The experiment is classed as in vivo, Abutilon theophrasti.
Experiment [3] relates to MATIN. The experiment in a line: Pre-emergence herbicidal test. The experiment is classed as in vivo, Matricaria inodora.
The subject of experiment [4] is ALOMY. Description: Pre-emergence herbicidal test. Format: in vivo, Alopecurus myosuroides.
For experiment [5], the system named is PHBPU. Description: Pre-emergence herbicidal test. The experiment is classed as in vivo, Pharbitis purpurea.
Experiment [6] concerns ECHCG. Description: Post-emergence herbicidal test. The experiment is classed as in vivo, Echinochloa crus-galli.
Experiment [7] has as its system VERPE. The experiment in a line: Post-emergence herbicidal test. Format: in vivo, Veronica persica.
Experiment [8] has as its system POLCO. The experiment in a line: Pre-emergence herbicidal test. The experiment is classed as in vivo, Polygonum convolvulus.
The test system of experiment [9] is POLCO. The experiment in a line: Post-emergence herbicidal test. The experiment is classed as in vivo, Polygonum convolvulus.
The test system of experiment [10] is SETVI. Description: Pre-emergence herbicidal test. The experiment is classed as in vivo, Setaria viridis.
Experiment [11] has as its system AMARE. Description: Post-emergence herbicidal test. The experiment is classed as in vivo, Amaranthus retroflexus.
Experiment [12] concerns STEME. The experiment in a line: Post-emergence herbicidal test. Format: in vivo, Stellaria media.
Experiment [13] has as its system VIOTR. The experiment in a line: Pre-emergence herbicidal test. Format: in vivo, Viola tricolor.
For experiment [14], the system named is STEME. Description: Pre-emergence herbicidal test. The experiment is classed as in vivo, Stellaria media.
Experiment [15] relates to ALOMY. Description: Post-emergence herbicidal test. Format: in vivo, Alopecurus myosuroides.
Experiment [16] has as its system ECHCG. The experiment in a line: Pre-emergence herbicidal test. The experiment is classed as in vivo, Echinochloa crus-galli.
The subject of experiment [17] is PHBPU. The experiment in a line: Post-emergence herbicidal test. The experiment is classed as in vivo, Pharbitis purpurea.
Experiment [18] has as its system ABUTH. Description: Pre-emergence herbicidal test. The experiment is classed as in vivo, Abutilon theophrasti.
In experiment [19] the test system is AMARE. The experiment in a line: Pre-emergence herbicidal test. Format: in vivo, Amaranthus retroflexus.
In experiment [20] the test system is LOLRI. The experiment in a line: Pre-emergence herbicidal test. The experiment is classed as in vivo.
For experiment [21], the system named is VIOTR. Description: Post-emergence herbicidal test. The experiment is classed as in vivo, Viola tricolor.
Experiment [22] concerns SETVI. Description: Post-emergence herbicidal test. Format: in vivo, Setaria viridis.
In experiment [23] the test system is HORMU. The experiment in a line: Pre-emergence herbicidal test. Format: in vivo.

For `Nc1nsc2c1C=CCN(CC1CCCCC1)C2=O` [Example I-04, 3-amino-7-(cyclohexylmethyl)-6H-isothiazolo[5,4-c]azepin-8-one], the VERPE in experiment [1] was 100; in [7], 90. In addition, the ABUTH in experiment [2] and in experiment [18] was 100 in each case. In addition, the MATIN in experiment [3] stood at 100. Also, the ALOMY in experiment [4] and in experiment [15] was 100 throughout. The PHBPU in experiment [5] and in experiment [17] was 100 each time. Further, the ECHCG in experiment [6] and in experiment [16] was 100 throughout. Further, the POLCO in experiment [8] and in experiment [9] was 100 each time. Moreover, the SETVI is reported as 100 in experiment [10] and 90 in [22]. Moreover, the AMARE in [11] and in [19] was 100 throughout. Moreover, the STEME in experiment [12] and in experiment [14] was 100 throughout. The VIOTR in experiment [13] and in [21] was 100 each time. The compound further registered an LOLRI in experiment [20] of 100. The compound also came in with an HORMU in [23] of 90.
In the case of `O=C(Nc1nsc2c1C=CCN(C1CCCCC1)C2=O)C(F)F` [Example I-25], the results for the VERPE in [1] and in experiment [7] were 100 and 90, respectively. Besides, the ABUTH in experiment [2] and in experiment [18] was 100 in each case. For the same compound, the ALOMY in [4] and in experiment [15] was 100 in each case. Moreover, the PHBPU in experiment [5] and in experiment [17] was 100 throughout. The ECHCG in experiment [6] and in [16] was 100 throughout. The POLCO in experiment [8] and in experiment [9] was 100 each time. For the same compound, the SETVI in experiment [10] and in experiment [22] was 100 each time. The AMARE in experiment [11] and in experiment [19] was 100 each time. Further, the STEME in [12] and in experiment [14] was 100 in each case. Also, the VIOTR in experiment [13] and in [21] was 100 in each case.
For `O=C1c2snc(NC(=O)C(F)(F)C(F)(F)F)c2C=CCN1CC1CCCCC1` [Example I-61], the results for the VERPE in [1] and in experiment [7] were 100 and 90, respectively. Further, the figures for the ABUTH in [2] and in experiment [18] were 80 and 100, respectively. Also, the MATIN in experiment [3] worked out at 100. Also, the ALOMY in experiment [4] and in experiment [15] was 90 in each case. Further, the PHBPU in experiment [5] came to 100; in experiment [17], 90. The ECHCG in [6] is 90; in experiment [16], 100. Moreover, the POLCO in experiment [8] and in experiment [9] was 100 in each case. The SETVI in experiment [10] is reported as 100; in experiment [22] it was 80. The AMARE in [11] and in [19] was 100 in each case. In addition, the STEME in experiment [12] and in [14] was 100 throughout. Further, the VIOTR in experiment [13] and in experiment [21] was 100 in each case. For the same compound, the LOLRI in experiment [20] turned out to be 100. This compound registered an HORMU in experiment [23] of 100.
